Experimental data: patent US11180462B2, “Microbiocidal oxadiazole derivatives” (SYNGENTA PARTICIPATIONS AG, priority 2015, dated 2021)

Tests used:
[1] = system: Puccinia recondita f. Sp. Tritici; assay: Fungicidal activity against Puccinia recondita f. sp. tritici / wheat / leaf disc preventative (brown rust); format: in vivo; conditions: foliar, 200 ppm in the applied formulation, wheat leaf segments, preventative, compared to untreated control leaf disks, read-out: disease control
Outline: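 Preventative leaf-segment test, wheat cv. Kanzler on water agar. Spray compound at 200 ppm, inoculate with spores 1 day later; 19° C., 75% rh, 12/12 h light. Read-out: % disease control vs untreated, 7 to 9 days after application.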

[2] = system: Puccinia recondita f. Sp. Tritici; assay: Fungicidal activity against Puccinia recondita f. sp. tritici / wheat / leaf disc curative (brown rust); format: in vivo; conditions: foliar, 24 h, 200 ppm in the applied formulation, wheat leaf segments, curative (applied 1 day after inoculation), compared to untreated control leaf disks, read-out: disease control
Outline: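 Curative leaf-segment test: compound diluted in water applied 1 day after spore inoculation of cv. Kanzler wheat segments on agar. Conditions 19° C, 75% RH, 12 h/12 h light cycle. Read-out: % disease control relative to untreated check, 6 to 8 days after application.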

Phakopsora Pachyrhizi = assay: Fungicidal activity against Phakopsora pachyrhizi / soybean / leaf disc preventative (Asian soybean rust); format: in vivo; conditions: foliar, 200 ppm in the applied formulation, soybean leaf disks, compared to untreated control leaf disks, read-out: disease control
Outline: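 Preventative soybean leaf-disc test: discs on water agar sprayed with diluted formulated compound, inoculated one day later with spores on the lower surface. Held 24–36 h dark at 20°C, 75% rh, then 12 h light/day; percent disease control versus untreated discs scored 12–14 days after application.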

[3] = system: Glomerella lagenarium (Colletotrichum lagenarium); assay: Fungicidal activity against Glomerella lagenarium (Colletotrichum lagenarium) liquid culture / cucumber / preventative (anthracnose); format: cell-based; conditions: Colletotrichum orbiculare; 20 ppm in the applied formulation; liquid culture (PDB), growth inhibition measured photometrically after 3 to 4 days; compared to untreated control; read-out: disease control
Outline: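 Photometric read-out of fungal growth after 2–7 days, expressed as percent antifungal activity versus untreated check. Cryo-stored conidia in PDB; compound at 20 ppm; dark, 24 °C, 96% RH.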

CON(Cc1ccc(-c2noc(C(F)(F)F)n2)cc1F)C(=O)C1CC1 [Compound 1.566, N-[[2-fluoro-4-[5-(trifluoromethyl)-1,2,4-oxadiazol-3-yl]phenyl]methyl]-N-methoxy-cyclopropane-carboxamide]
≥ 80%: pest or weed control at 200 ppm [1] | pest or weed control at 200 ppm [2] | pest or weed control at 200 ppm (Phakopsora Pachyrhizi) | inhibition of growth at 20 ppm [3]

CC1CC1C(=O)N(O)Cc1ccc(-c2noc(C(F)(F)F)n2)cc1 (stereo not shown) [Compound 1.763, N-hydroxy-2-methyl-N-[[4-[5-(trifluoromethyl)-1,2,4-oxadiazol-3-yl]phenyl]methyl]-cyclopropane-carboxamide]
≥ 80%: pest or weed control at 200 ppm [1] | pest or weed control at 200 ppm [2] | pest or weed control at 200 ppm (Phakopsora Pachyrhizi) | inhibition of growth at 20 ppm [3]

CCC(=O)N(Cc1ccc(-c2noc(C(F)(F)F)n2)cc1)CC1CCCO1 (stereo not shown) [Compound 1.432, N-(tetrahydrofuran-2-ylmethyl)-N-[[4-[5-(trifluoromethyl)-1,2,4-oxadiazol-3-yl]phenyl]methyl]-propanamide]
≥ 80%: pest or weed control at 200 ppm [1] | pest or weed control at 200 ppm [2] | pest or weed control at 200 ppm (Phakopsora Pachyrhizi) | inhibition of growth at 20 ppm [3]

CCCN(Cc1ccc(-c2noc(C(F)(F)F)n2)cc1)C(=O)CCCOC [Compound 1.662, 4-methoxy-N-propyl-N-[[4-[5-(trifluoromethyl)-1,2,4-oxadiazol-3-yl]phenyl]methyl]-butanamide]
≥ 80%: pest or weed control at 200 ppm [1] | pest or weed control at 200 ppm [2] | pest or weed control at 200 ppm (Phakopsora Pachyrhizi) | inhibition of growth at 20 ppm [3]

COCCC(=O)N(Cc1ccc(-c2noc(C(F)(F)F)n2)cc1)CC1CC1 [Compound 1.217, N-(cyclopropylmethyl)-3-melhoxy-N-[[4-[5-(trifluoromethyl)-1,2,4-oxadiazol-3-yl]phenyl]methyl]-propanamide]
≥ 80%: pest or weed control at 200 ppm [1] | pest or weed control at 200 ppm [2] | pest or weed control at 200 ppm (Phakopsora Pachyrhizi) | inhibition of growth at 20 ppm [3]

CN(Cc1ccc(-c2noc(C(F)(F)F)n2)cc1)C(=O)C1CCC1 [Compound 1.518, N-methyl-N-[[4-[5-(trifluoromethyl)-1,2,4-oxadiazol-3-yl]phenyl]methyl]-cyclobutane-carboxamide]
≥ 80%: pest or weed control at 200 ppm [1] | pest or weed control at 200 ppm [2] | pest or weed control at 200 ppm (Phakopsora Pachyrhizi) | inhibition of growth at 20 ppm [3]

C#CCN(Cc1ccc(-c2noc(C(F)(F)F)n2)cc1)C(=O)C1CCOC1 (stereo not shown) [Compound 1.171, N-prop-2-ynyl-N-[[4-[5-(trifluoromethyl)-1,2,4-oxadiazol-3-yl]phenyl]methyl]-tetrahydrofuran-3-carboxamide]
≥ 80%: pest or weed control at 200 ppm [1] | pest or weed control at 200 ppm [2] | pest or weed control at 200 ppm (Phakopsora Pachyrhizi) | inhibition of growth at 20 ppm [3]

O=C(ON(Cc1ccc(-c2noc(C(F)(F)F)n2)cc1)C(=O)C1CCOC1)C1CCOC1 (stereo not shown) [Compound 1.757, [tetrahydrofuran-3-carbonyl-[[4-[5-(trifluoromethyl)-1,2,4-oxadiazol-3-yl]phenyl]methyl]-amino] tetrahydrofuran-3-carboxylate]
≥ 80%: pest or weed control at 200 ppm [1] | pest or weed control at 200 ppm [2] | pest or weed control at 200 ppm (Phakopsora Pachyrhizi) | inhibition of growth at 20 ppm [3]

O=C(C1CC1(F)F)N(Cc1ccc(-c2noc(C(F)(F)F)n2)cc1)C1CC1 (stereo not shown) [Compound 1.89, N-cyclopropyl-2,2-difluoro-N-[[4-[5-(trifluoromethyl)-1,2,4-oxadiazol-3-yl]phenyl]methyl]-cyclopropane-carboxamide]
≥ 80%: pest or weed control at 200 ppm [1] | pest or weed control at 200 ppm [2] | pest or weed control at 200 ppm (Phakopsora Pachyrhizi) | inhibition of growth at 20 ppm [3]

CN(Cc1ccc(-c2noc(C(F)(F)F)n2)cc1)C(=O)C1CCCC1 [Compound 1.515, N-methyl-N-[[4-[5-(trifluoromethyl)-1,2,4-oxadiazol-3-yl]phenyl]methyl]-cyclopentane-carboxamide]
≥ 80%: pest or weed control at 200 ppm [1] | pest or weed control at 200 ppm [2] | pest or weed control at 200 ppm (Phakopsora Pachyrhizi) | inhibition of growth at 20 ppm [3]

CON(Cc1ccc(-c2noc(C(F)(F)F)n2)cc1)C(=O)C1(C)CC1 [Compound 1.43, N-methoxy-1-methyl-N-[[4-[5-(trifluoromethyl)-1,2,4-oxadiazol-3-yl]phenyl]methyl]-cyclopropane-carboxamide]
≥ 80%: pest or weed control at 200 ppm [1] | pest or weed control at 200 ppm [2] | pest or weed control at 200 ppm (Phakopsora Pachyrhizi) | inhibition of growth at 20 ppm [3]

C=CCN(Cc1ccc(-c2noc(C(F)(F)F)n2)cc1)C(=O)C1(C)COC1 [Compound 1.488, N-allyl-3-methyl-N-[[4-[5-(trifluoromethyl)-1,2,4-oxadiazol-3-yl]phenyl]methyl]-oxetane-3-carboxamide]
≥ 80%: pest or weed control at 200 ppm [1] | pest or weed control at 200 ppm [2] | pest or weed control at 200 ppm (Phakopsora Pachyrhizi) | inhibition of growth at 20 ppm [3]

CC(C)C(=O)N(Cc1ccc(-c2noc(C(F)(F)F)n2)cc1)C1CC1 [Compound 1.87, N-cyclopropyl-2-methyl-N-[[4-[5-(trifluoromethyl)-1,2,4-oxadiazol-3-yl]phenyl]methyl]-propanamide]
≥ 80%: pest or weed control at 200 ppm [1] | pest or weed control at 200 ppm [2] | pest or weed control at 200 ppm (Phakopsora Pachyrhizi) | inhibition of growth at 20 ppm [3]

CON(Cc1ccc(-c2noc(C(F)(F)F)n2)cc1)C(=O)C(C)(C)OC [Compound 1.779, N,2-dimethoxy-2-methyl-N-[[4-[5-(trifluoromethyl)-1,2,4-oxadiazol-3-yl]phenyl]methyl]-propanamide]
≥ 80%: pest or weed control at 200 ppm [1] | pest or weed control at 200 ppm [2] | pest or weed control at 200 ppm (Phakopsora Pachyrhizi) | inhibition of growth at 20 ppm [3]

C#CCN(Cc1ccc(-c2noc(C(F)(F)F)n2)cc1)C(=O)C1CC1 [Compound 1.201, N-prop-2-ynyl-N-[[4-[5-(trifluoromethyl)-1,2,4-oxadiazol-3-yl]phenyl]methyl]-cyclopropane-carboxamide]
≥ 80%: pest or weed control at 200 ppm [1] | pest or weed control at 200 ppm [2] | pest or weed control at 200 ppm (Phakopsora Pachyrhizi) | inhibition of growth at 20 ppm [3]

CON(Cc1ccc(-c2noc(C(F)(F)F)n2)cc1)C(=O)N(C)CC#N [Compound 3.57, 1-(cyanomethyl)-3-methoxy-1-methyl-3-[[4-[5-(trifluoromethyl)-1,2,4-oxadiazol-3-yl]phenyl]methyl]urea]
≥ 80%: pest or weed control at 200 ppm [1] | pest or weed control at 200 ppm [2] | pest or weed control at 200 ppm (Phakopsora Pachyrhizi) | inhibition of growth at 20 ppm [3]
